Data reported in the supplement of paper PMC10307832.

Columns and labels:
Experiment in all cases: relative viability (nuclei count vs DMSO), 5 days (fraction); higher = more cells survive
Quizartinib + Vorinostat = compound: CC(C)(C)c1cc(NC(=O)Nc2ccc(-c3cn4c(n3)sc3cc(OCCN5CCOCC5)ccc34)cc2)no1 [Quizartinib] + O=C(CCCCCCC(=O)Nc1ccccc1)NO [Vorinostat] (partner 1 µM)
How it was run: (§1)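 Values are medians from duplicate plates. Each reflects relative viability, defined as the nuclei count of treated wells over that of vehicle wells. Lung cancer cell lines in 1536-well plates were pin-tool dosed one day after seeding with one drug alone or with a fixed anchor-drug dose plus five library-drug doses (not always all listed) in √10 steps, then fixed, stained and imaged at 4× after 5 days.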

YM155 + Luminespib = compound: COCC[n+]1c2c(n(Cc3cnccn3)c1C)C(=O)c1ccccc1C2=O [YM155] + CCNC(=O)c1noc(-c2cc(C(C)C)c(O)cc2O)c1-c1ccc(CN2CCOCC2)cc1 [Luminespib] (partner 0.01 µM)
How it was run: as §1

YM155 + Tozasertib = compound: COCC[n+]1c2c(n(Cc3cnccn3)c1C)C(=O)c1ccccc1C2=O [YM155] + Cc1cc(Nc2cc(N3CCN(C)CC3)nc(Sc3ccc(NC(=O)C4CC4)cc3)n2)n[nH]1 [Tozasertib] (partner 0.1 µM)
How it was run: as §1

YM155 + Olaparib = compound: COCC[n+]1c2c(n(Cc3cnccn3)c1C)C(=O)c1ccccc1C2=O [YM155] + O=C(c1cc(Cc2n[nH]c(=O)c3ccccc23)ccc1F)N1CCN(C(=O)C2CC2)CC1 [Olaparib] (partner 8 µM)
How it was run: as §1

Cell Line | relative viability (Quizartinib + Vorinostat; first compound 0.001 µM) | relative viability (Quizartinib + Vorinostat; first compound 0.003162 µM) | relative viability (Quizartinib + Vorinostat; first compound 0.01 µM) | relative viability (Quizartinib + Vorinostat; first compound 0.03162 µM) | relative viability (Quizartinib + Vorinostat; first compound 0.1 µM) | relative viability (YM155 + Luminespib; first compound 0.002 µM) | relative viability (YM155 + Luminespib; first compound 0.006325 µM) | relative viability (YM155 + Luminespib; first compound 0.02 µM) | relative viability (YM155 + Luminespib; first compound 0.06325 µM) | relative viability (YM155 + Tozasertib; first compound 0.002 µM) | relative viability (YM155 + Tozasertib; first compound 0.006325 µM) | relative viability (YM155 + Tozasertib; first compound 0.02 µM) | relative viability (YM155 + Tozasertib; first compound 0.06325 µM) | relative viability (YM155 + Olaparib; first compound 0.002 µM) | relative viability (YM155 + Olaparib; first compound 0.006325 µM) | relative viability (YM155 + Olaparib; first compound 0.02 µM) | relative viability (YM155 + Olaparib; first compound 0.06325 µM)
CAL-12T | 0.684 | 0.711 | 0.914 | 0.511 | 0.943 | 0.362 | 0.766 | 0.414 | 0.183 | 0.311 | 0.336 | 0.376 | 0.149 | 0.782 | 0.735 | 0.625 | 0.331
NCI-H520 | – | 0.607 | 0.768 | 0.61 | 0.573 | 0.238 | 0.266 | 0.215 | 0.233 | 0.432 | 0.496 | 0.48 | 0.377 | 0.362 | 0.441 | 0.379 | 0.294
LCLC-103H | 0.743 | 0.735 | 0.663 | 0.812 | 0.779 | 0.927 | 0.832 | 0.846 | 1.04 | 0.569 | 0.454 | 0.464 | 0.487 | 0.738 | 0.845 | 0.77 | 0.801
NCI-H1651 | 0.535 | 0.64 | 0.551 | 0.527 | 0.612 | 0.869 | 0.836 | 0.789 | 0.604 | 0.641 | 0.686 | 0.685 | 0.33 | 0.189 | 0.19 | 0.206 | 0.173
NCI-H2347 | 0.544 | 0.647 | 0.715 | 0.522 | 0.603 | 0.409 | 0.41 | 0.647 | 0.368 | 0.531 | 0.59 | 0.786 | 0.567 | 0.536 | 0.489 | 0.618 | 0.498
LC-2-ad | 0.603 | 0.688 | 0.733 | 0.681 | 0.694 | 0.942 | 0.959 | 0.869 | 0.331 | 0.469 | 0.425 | 0.438 | 0.299 | 0.718 | 0.685 | 0.695 | 0.617
NCI-H3122 | 0.89 | 0.799 | 0.915 | 1 | 0.994 | 0.0874 | 0.123 | 0.0877 | 0.0824 | 0.43 | 0.423 | 0.396 | 0.273 | 0.623 | 0.74 | 0.679 | 0.627
LK-2 | 0.179 | 0.185 | 0.306 | 0.315 | 0.294 | 0.249 | 0.165 | 0.21 | 0.185 | 0.154 | 0.188 | 0.208 | 0.203 | 0.644 | 0.71 | 0.797 | 0.75
